Tests used:
[1] = biological target: human HSV DNA polymerase UL30 (Human herpesvirus 1 (strain 17) (HHV-1) (Human herpes simplex virus 1), UniProt P04293); test: HSV polymerase biochemical assay (molecular beacon-based)
Summary of the method: (§1)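 Readout was beacon fluorescence (ex 480, em 535 nm), used to derive IC50. Each dNTP was at 1.25 uM, with 200 nM primer and 100 nM beacon, after a 30-min RT inhibitor preincubation. Enzyme was 625 pM for HSV UL30 (20 min RT reaction) or 100 pM for CMV UL54 (60 min RT), both sf9-expressed MBP fusions, in pH 7.5 Tris buffer with MgCl2.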

[2] = tested on: Luciferase-encoding HCMV, AD169 strain; test: CMV Luciferase assay (cellular herpesvirus replication); type: cell-based; details: Human betaherpesvirus 5, AD169, read-out: CMV-Luc Cellular EC50
Summary of the method: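 Neonatal human dermal fibroblasts were pretreated 1 h with compound (final 0.0159–50 μM or 0.00318–10 μM, 0.5% DMSO), then infected at MOI 1 with AD169 carrying pp28-promoter luciferase. After 72 h at 37 °C, Renilla-Glo luminescence normalized to no-virus and virus-only controls; EC50 by 4-parameter logistic model.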

[3] = biological target: human CMV DNA polymerase UL54 (Human cytomegalovirus (strain AD169) (HHV-5) (Human herpesvirus 5), UniProt P08546); test: CMV polymerase biochemical assay (molecular beacon-based)
Summary of the method: as §1

| Compound | IC50 [1] [µM] | EC50 [2] [µM] | IC50 [3] [µM] |
| --- | --- | --- | --- |
| Cc1cc(C(=O)NCc2ccc(Cl)cc2)c(=O)n2c1C(=O)N(CCCS(C)(=O)=O)CC2 [Example 152] | 1.67 | 9.19 | 0.653 |
| CC(C)(c1ncno1)S(=O)(=O)C1(CN2CCn3c(ccc(C(=O)NCc4ccc(C#N)cc4)c3=O)C2=O)CC1 [Example 179] | 0.0169 | 0.125 | 0.0004 |
| CS(=O)(=O)C1(CN2CCn3c(ccc(C(=O)NCc4ccc(C#N)cc4F)c3=O)C2=O)CC1 [Example 38] | 0.63 | 0.868 | 0.012 |
| CN(C(=O)OC(C)(C)C)C1(CN2CCn3c(ccc(C(=O)NCc4ccc(Cl)cc4)c3=O)C2=O)CC1 [Example 206] | 250 | 10 | 1.74 |
| CS(=O)(=O)CCN1CCn2c(c(Br)cc(C(=O)NCc3ccc(Cl)cc3)c2=O)C1=O [Example 117, 9-bromo-N-(4-chlorobenzyl)-2-(2-(methylsulfonyl)ethyl)-1,6-dioxo-1,3,4,6-tetrahydro-2H-pyrido[1,2-a]pyrazine-7-carboxamide] | 0.577 | 1.44 | 0.285 |
| CCS(=O)(=O)CCN1CCn2c(ccc(C(=O)NCc3ccc(Cl)cc3)c2=O)C1=O [Example 53] | 0.365 | 1.46 | 0.149 |
| C[C@@H](CCO)S(=O)(=O)C1(CN2CCn3c(ccc(C(=O)NCc4ccc(Cl)cc4)c3=O)C2=O)CC1 (single isomer, unassigned) [Example 7, N-(4-chlorobenzyl)-2-((1-((4-hydroxybutan-2-yl)sulfonyl)cyclopropyl)methyl)-1,6-dioxo-2,3,4,6-tetrahydro-1H-pyrido[1,2-a]pyrazine-7-carboxamide] | 0.0356 | 0.0328 | 0.001 |
| CS(=O)(=O)CCCN1CCn2c(ccc(C(=O)NCc3ccc(Cl)cc3)c2=O)C1=O [Example 52] | 0.791 | 2.95 | 0.163 |
| O=C(NCc1ccc(Cl)cc1)c1ccc2n(c1=O)CCN(CC1(S(=O)(=O)C3CCNC3)CC1)C2=O (stereo not drawn) [Example 80-1, N-(4-chlorobenzyl)-1,6-dioxo-2-((1-(pyrrolidin-3-ylsulfonyl)cyclopropyl)methyl)-2,3,4,6-tetrahydro-1H-pyrido[1,2-a]pyrazine-7-carboxamide] | 0.0976 | 0.215 | 0.0034 |
| CN(C1(CN2CCn3c(ccc(C(=O)NCc4ccc(Cl)cc4)c3=O)C2=O)CC1)S(C)(=O)=O [Example 174] | 2.68 | 4.2 | 0.0643 |
| N#Cc1ccc(CNC(=O)c2ccc3n(c2=O)CCN(CC2(S(=O)(=O)CC4CC4)CC2)C3=O)cc1 [Example 107-2] | 0.15 | 0.2 | 0.0025 |
| N#Cc1ccc(CNC(=O)c2ccc3n(c2=O)CCN(CC2(S(=O)(=O)[C@H]4CC4(F)F)CC2)C3=O)cc1Cl (single isomer, unassigned) [Example 102-1] | 0.199 | 0.229 | 0.002 |
| CC(C)(C(N)=O)S(=O)(=O)C1(CN2CCn3c(ccc(C(=O)NCc4ccc(Cl)cc4)c3=O)C2=O)CC1 [Example 177, 2-((1-((1-amino-2-methyl-1-oxopropan-2-yl)sulfonyl)cyclopropyl)methyl)-N-(4-chlorobenzyl)-1,6-dioxo-1,3,4,6-tetrahydro-2H-pyrido[1,2-a]pyrazine-7-carboxamide] | 0.0181 | 0.0124 | 0.0015 |
| N#Cc1ccc(CNC(=O)c2ccc3n(c2=O)CCN(CC2(S(=O)(=O)C4(C(F)F)CC4)CC2)C3=O)cc1F [Example 99-2] | 0.0524 | 0.0301 | 0.0007 |
| CC(C)(C(=O)O)S(=O)(=O)C1(CN2CCn3c(ccc(C(=O)NCc4ccc(Cl)cc4)c3=O)C2=O)CC1 [Example 175, 2-((1-((7-((4-chlorobenzyl)carbamoyl)-1,6-dioxo-1,3,4,6-tetrahydro-2H-pyrido[1,2-a]pyrazin-2-yl)methyl)cyclopropyl)sulfonyl)-2-methylpropanoic acid] | 0.0244 | 6.05 | 0.0008 |
| O=C(NCc1ccc(F)cc1)c1ccc2n(c1=O)CCN(CC1(S(=O)(=O)C3CC3)CC1)C2=O [Example 3-2] | 0.0787 | 0.0848 | 0.003 |
| CC(C)(C)NS(=O)(=O)C1(CN2CCn3c(ccc(C(=O)NCc4ccc(C#N)cc4)c3=O)C2=O)CC1 [Example 73-1] | 0.0469 | 0.0937 | 0.0015 |
| N#Cc1ccc(CNC(=O)c2ccc3n(c2=O)CCN(CC2(S(=O)(=O)C4CCOCC4)CC2)C3=O)cc1 [Example 105-2] | 0.0643 | 0.178 | 0.0025 |

Reference: patent US12466821B2 (Novartis AG, priority 2018, dated 2025)
